Results: the NIST ThermoML archive (doi:10.1021/acs.jced.7b01053)
Several values for one entry are separate records, joined by “and”; a condition that tells them apart may be missing. Identical values can stand only once.

Assay: mn = molality of the nth substance listed, in mol/kg
Conditions: 293 K, 100 kPa, Liquid, Alternating current cell with electrodes

CC(=O)[O-].OCC[NH2+]CCO [2,2'-azanediylbis(ethanol) acetate] + O
Conditions	electrical conductivity
m1 = 0.02102	0.103 S/m
m1 = 0.02229	0.092 S/m
m1 = 0.0413	0.189 S/m
m1 = 0.04556	0.185 S/m
m1 = 0.06489	0.299 S/m
m1 = 0.06982	0.299 S/m
m1 = 0.08642	0.38 S/m
m1 = 0.0929	0.387 S/m
m1 = 0.11	0.471 S/m
m1 = 0.1182	0.481 S/m
m1 = 0.133	0.551 S/m
m1 = 0.1442	0.574 S/m
m1 = 0.1566	0.637 S/m
m1 = 0.17	0.664 S/m
m1 = 0.1784	0.715 S/m
m1 = 0.1932	0.749 S/m
m1 = 0.2015	0.79 S/m
m1 = 0.2176	0.822 S/m
m1 = 0.2233	0.87 S/m
m1 = 0.2404	0.892 S/m
m1 = 0.2459	0.947 S/m
m1 = 0.2633	0.966 S/m
m1 = 0.2671	1.01 S/m
m1 = 0.2853	1.03 S/m
m1 = 0.2885	1.08 S/m
m1 = 0.3076	1.11 S/m
m1 = 0.3083	1.14 S/m
m1 = 0.3285	1.16 S/m and 1.2 S/m
m1 = 0.3471	1.26 S/m
m1 = 0.3495	1.22 S/m
m1 = 0.3658	1.32 S/m
m1 = 0.3689	1.27 S/m
m1 = 0.3832	1.37 S/m
m1 = 0.3886	1.33 S/m
m1 = 0.4004	1.42 S/m
m1 = 0.4068	1.38 S/m
m1 = 0.4163	1.46 S/m
m1 = 0.4248	1.43 S/m
m1 = 0.4322	1.51 S/m
m1 = 0.4417	1.47 S/m
m1 = 0.4472	1.55 S/m
m1 = 0.4583	1.51 S/m
m1 = 0.4617	1.59 S/m
m1 = 0.4738	1.56 S/m
m1 = 0.4751	1.64 S/m
m1 = 0.4881	1.68 S/m
m1 = 0.489	1.61 S/m
m1 = 0.5005	1.73 S/m
m1 = 0.5032	1.65 S/m
m1 = 0.5129	1.76 S/m
m1 = 0.5172	1.68 S/m
m1 = 0.5243	1.8 S/m
m1 = 0.5302	1.7 S/m
m1 = 0.5355	1.83 S/m
m1 = 0.5436	1.73 S/m
m1 = 0.5561	1.76 S/m

CCCC(=O)[O-].[NH3+]CCO [2-hydroxy ethylammonium butanoate] + O
Conditions	electrical conductivity [S/m]
m1 = 0.01855	0.092
m1 = 0.0207	0.107
m1 = 0.03507	0.163
m1 = 0.0415	0.196
m1 = 0.05678	0.264
m1 = 0.06247	0.295
m1 = 0.07651	0.338
m1 = 0.08283	0.372
m1 = 0.09713	0.41
m1 = 0.1049	0.449
m1 = 0.119	0.485
m1 = 0.1258	0.511
m1 = 0.1407	0.563
m1 = 0.1476	0.585
m1 = 0.1628	0.637
m1 = 0.1681	0.649
m1 = 0.184	0.709
m1 = 0.1888	0.711
m1 = 0.2055	0.77
m1 = 0.2087	0.764
m1 = 0.2251	0.834
m1 = 0.2284	0.81
m1 = 0.2448	0.894
m1 = 0.2469	0.857
m1 = 0.2626	0.946
m1 = 0.2654	0.9
m1 = 0.2809	0.994
m1 = 0.2825	0.94
m1 = 0.298	1.04
m1 = 0.3001	0.982
m1 = 0.3153	1.09
m1 = 0.3165	1.02
m1 = 0.331	1.12
m1 = 0.3327	1.06
m1 = 0.3468	1.17
m1 = 0.3475	1.09
m1 = 0.3613	1.2
m1 = 0.3622	1.12
m1 = 0.3758	1.15
m1 = 0.3759	1.23
m1 = 0.3892	1.27
m1 = 0.3894	1.18
m1 = 0.4021	1.2
m1 = 0.4023	1.3
m1 = 0.4144	1.23
m1 = 0.4145	1.32
m1 = 0.4231	1.34
m1 = 0.4259	1.25
m1 = 0.4344	1.36
m1 = 0.4374	1.27
m1 = 0.4449	1.39
m1 = 0.448	1.29
m1 = 0.4554	1.41
m1 = 0.4584	1.32
m1 = 0.4651	1.43
m1 = 0.4681	1.33
m1 = 0.4746	1.45
m1 = 0.4775	1.35
m1 = 0.4835	1.46
m1 = 0.4864	1.38
m1 = 0.4922	1.48
m1 = 0.495	1.4
m1 = 0.5005	1.5
m1 = 0.5032	1.41
m1 = 0.5085	1.52
m1 = 0.516	1.54
m1 = 0.5231	1.55

CCCCC(=O)[O-].[NH3+]CCO [2-hydroxy ethylammonium pentanoate] + O
Conditions	electrical conductivity [S/m]
m1 = 0.01913	0.108
m1 = 0.01918	0.068
m1 = 0.03718	0.19
m1 = 0.03781	0.126
m1 = 0.05621	0.26
m1 = 0.05801	0.176
m1 = 0.07457	0.309
m1 = 0.07759	0.244
m1 = 0.09498	0.365
m1 = 0.09926	0.296
m1 = 0.1135	0.412
m1 = 0.1187	0.344
m1 = 0.1336	0.48
m1 = 0.1402	0.393
m1 = 0.152	0.526
m1 = 0.1594	0.439
m1 = 0.1718	0.578
m1 = 0.1796	0.483
m1 = 0.1899	0.625
m1 = 0.1981	0.523
m1 = 0.2067	0.661
m1 = 0.2174	0.664
m1 = 0.224	0.701
m1 = 0.2348	0.597
m1 = 0.24	0.739
m1 = 0.2529	0.637
m1 = 0.2565	0.776
m1 = 0.2697	0.669
m1 = 0.272	0.809
m1 = 0.2867	0.704
m1 = 0.2875	0.844
m1 = 0.302	0.875
m1 = 0.3024	0.734
m1 = 0.3165	0.904
m1 = 0.3181	0.759
m1 = 0.3299	0.93
m1 = 0.3329	0.786
m1 = 0.3434	0.957
m1 = 0.3474	0.812
m1 = 0.3561	0.983
m1 = 0.3608	0.832
m1 = 0.3685	1.01
m1 = 0.3744	0.855
m1 = 0.38	1.03
m1 = 0.3866	0.876
m1 = 0.3914	1.05
m1 = 0.3988	0.895
m1 = 0.402	1.07
m1 = 0.4101	0.917
m1 = 0.4126	1.09
m1 = 0.4215	0.925
m1 = 0.4221	1.11
m1 = 0.4316	1.13
m1 = 0.4318	0.94
m1 = 0.4404	1.14
m1 = 0.4421	0.957
m1 = 0.4517	0.971
